Laboratory results taken from ChEMBL document CHEMBL2073873, “Identification of a novel human organic anion transporting polypeptide as a high affinity thyroxine transporter” (Mol Endocrinol, 2002).
Residues, ends and D or L forms follow the SMILES beside them.

T1: Solute carrier organic anion transporter family member 1C1 (Homo sapiens, UniProt Q9NYB5)
T1 sequence (Q9NYB5 whole entry): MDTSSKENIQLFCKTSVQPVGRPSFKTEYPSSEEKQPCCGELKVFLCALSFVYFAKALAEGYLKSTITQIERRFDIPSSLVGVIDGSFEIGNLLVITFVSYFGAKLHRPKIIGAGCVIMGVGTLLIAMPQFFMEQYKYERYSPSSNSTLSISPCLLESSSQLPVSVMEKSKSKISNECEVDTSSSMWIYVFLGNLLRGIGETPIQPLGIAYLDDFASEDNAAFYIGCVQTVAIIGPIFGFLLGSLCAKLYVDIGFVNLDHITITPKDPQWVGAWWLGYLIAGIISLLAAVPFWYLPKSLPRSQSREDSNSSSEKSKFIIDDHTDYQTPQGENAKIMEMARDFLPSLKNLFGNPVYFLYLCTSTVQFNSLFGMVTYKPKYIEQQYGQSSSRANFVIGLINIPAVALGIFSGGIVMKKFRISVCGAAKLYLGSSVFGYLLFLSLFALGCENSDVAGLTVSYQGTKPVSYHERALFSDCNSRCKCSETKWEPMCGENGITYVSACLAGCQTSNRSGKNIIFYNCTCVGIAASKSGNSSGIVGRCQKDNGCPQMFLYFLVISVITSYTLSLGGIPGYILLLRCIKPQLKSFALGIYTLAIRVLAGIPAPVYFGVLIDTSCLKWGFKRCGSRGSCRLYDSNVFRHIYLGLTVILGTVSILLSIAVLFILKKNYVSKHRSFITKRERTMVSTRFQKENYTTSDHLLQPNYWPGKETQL


What was measured:
Format in all cases: functional, cell-based
[1] = target: T1, Solute carrier organic anion transporter family member 1C1; assay: (§1) TP_TRANSPORTER: uptake in OATP-F-expressing CHO cells; details: hamster
[2] = substrate: N[C@@H](Cc1ccc(Oc2cc(I)c(O)c(I)c2)c(I)c1)C(=O)O; assay: as §1
[3] = substrate: N[C@@H](Cc1cc(I)c(Oc2cc(I)c(O)c(I)c2)c(I)c1)C(=O)O; assay: as §1

Molecule	Activity [1]	Km [2] [µM]	Km [3] [µM]
C[C@H](CCC(=O)NCC(=O)O)[C@H]1CC[C@H]2[C@@H]3[C@H](O)C[C@@H]4C[C@H](O)CC[C@]4(C)[C@H]3C[C@H](O)[C@]12C [GLYCOCHOLIC ACID]	is not a substrate [-]	–	–
CC(C)C[C@@H]1NC(=O)[C@@H](C(C)C)NC(=O)[C@@H]2CCCN2C(=O)[C@@H](CC(=O)O)NC(=O)[C@@H](Cc2c[nH]c3ccccc23)NC1=O [BQ-123] (HELM PEPTIDE1{L.[dW].[dD].P.[dV]}$PEPTIDE1,PEPTIDE1,1:R1-5:R2$$$V2.0)	is not a substrate [-]	–	–
CC(C)[C@H](NC(=O)[C@H](CCC(=O)O)NC(=O)[C@H](Cc1ccccc1)NC(=O)[C@@H](C)NC(=O)[C@@H](N)Cc1ccc(O)cc1)C(=O)N[C@H](C(=O)NCC(N)=O)C(C)C [DELTORPHIN II]	is not a substrate [-]	–	–
C[C@@H]1O[C@@H](O[C@H]2C[C@@H](O)[C@]3(CO)[C@H]4[C@H](O)C[C@]5(C)[C@@H](C6=CC(=O)OC6)CC[C@]5(O)[C@@H]4CC[C@]3(O)C2)[C@H](O)[C@H](O)[C@H]1O [OUABAIN]	is not a substrate [-]	–	–
CCCCC/C=C\C\C=C/C=C/C=C/[C@@H](SC[C@@H](NC(=O)CC[C@H](N)C(=O)O)C(=O)NCC(=O)O)[C@@H](O)CCCC(=O)O [LEUKOTRIEN C4]	is not a substrate [-]	–	–
C[C@]12CC[C@@H]3c4ccc(O)cc4CC[C@H]3[C@@H]1CC[C@@H]2O[C@@H]1O[C@H](C(=O)O)[C@@H](O)[C@H](O)[C@H]1O [ESTRADIOL 17B GLUCURONIDE]	substrate [+]	–	–
CC1(C)SSC(C)(C)[C@@H](NC(=O)[C@@H](N)Cc2ccc(O)cc2)C(=O)NCC(=O)N[C@@H](Cc2ccccc2)C(=O)N[C@H]1C(=O)O	is not a substrate [-]	–	–
C=C[C@H]1C[N+]2(C)CC[C@H]1C[C@H]2[C@H](O)c1ccnc2ccc(OC)cc12	is not a substrate [-]	–	–
C[C@]12CC[C@@H]3c4ccc(OS(=O)(=O)O)cc4CC[C@H]3[C@@H]1CCC2=O [ESTRONE SULFURIC ACID]	substrate [+]	–	–
CCCCC[C@H](O)/C=C/[C@H]1[C@H](O)CC(=O)[C@@H]1C/C=C\CCCC(=O)O [DINOPROSTONE]	is not a substrate [-]	–	–
CN(Cc1cnc2nc(N)nc(N)c2n1)c1ccc(C(=O)N[C@@H](CCC(=O)O)C(=O)O)cc1 [METHOTREXATE]	is not a substrate [-]	–	–
O=C1OC(c2ccc(O)c(S(=O)(=O)[O-])c2)(c2ccc(O)c(S(=O)(=O)[O-])c2)c2c(Br)c(Br)c(Br)c(Br)c21.[Na+].[Na+] [SULFOBROMOPHTHALEIN SODIUM]	substrate [+]	–	–
N[C@@H](Cc1cc(I)c(Oc2ccc(O)c(I)c2)c(I)c1)C(=O)O [LIOTHYRONINE]	substrate [+]	–	–
C[C@]12CC[C@H](OS(=O)(=O)O)CC1=CC[C@@H]1[C@@H]2CC[C@]2(C)C(=O)CC[C@@H]12 [PRASTERONE SULFURIC ACID]	is not a substrate [-]	–	–
Solute carrier organic anion transporter family member 1C1 (Homo sapiens) (protein) MDTSSKENIQLFCKTSVQPVGRPSFKTEYPSSEEKQPCCGELKVFLCALSFVYFAKALAEGYLKSTITQIERRFDIPSSLVGVIDGSFEIGNLLVITFVSYFGAKLHRPKIIGAGCVIMGVGTLLIAMPQFFMEQYKYERYSPSSNSTLSISPCLLESSSQLPVSVMEKSKSKISNECEVDTSSSMWIYVFLGNLLRGIGETPIQPLGIAYLDDFASEDNAAFYIGCVQTVAIIGPIFGFLLGSLCAKLYVDIGFVNLDHITITPKDPQWVGAWWLGYLIAGIISLLAAVPFWYLPKSLPRSQSREDSNSSSEKSKFIIDDHTDYQTPQGENAKIMEMARDFLPSLKNLFGNPVYFLYLCTSTVQFNSLFGMVTYKPKYIEQQYGQSSSRANFVIGLINIPAVALGIFSGGIVMKKFRISVCGAAKLYLGSSVFGYLLFLSLFALGCENSDVAGLTVSYQGTKPVSYHERALFSDCNSRCKCSETKWEPMCGENGITYVSACLAGCQTSNRSGKNIIFYNCTCVGIAASKSGNSSGIVGRCQKDNGCPQMFLYFLVISVITSYTLSLGGIPGYILLLRCIKPQLKSFALGIYTLAIRVLAGIPAPVYFGVLIDTSCLKWGFKRCGSRGSCRLYDSNVFRHIYLGLTVILGTVSILLSIAVLFILKKNYVSKHRSFITKRERTMVSTRFQKENYTTSDHLLQPNYWPGKETQL	–	0.128	0.0904
